For test [1], the target named is T1, human androgen receptor (AR) (Homo sapiens, UniProt P10275).
T1 construct: expressed in transfected cells; host or cells: mouse myoblast C2C12 cells, transient co-transfection with Fugene
T1 sequence (P10275 1-920): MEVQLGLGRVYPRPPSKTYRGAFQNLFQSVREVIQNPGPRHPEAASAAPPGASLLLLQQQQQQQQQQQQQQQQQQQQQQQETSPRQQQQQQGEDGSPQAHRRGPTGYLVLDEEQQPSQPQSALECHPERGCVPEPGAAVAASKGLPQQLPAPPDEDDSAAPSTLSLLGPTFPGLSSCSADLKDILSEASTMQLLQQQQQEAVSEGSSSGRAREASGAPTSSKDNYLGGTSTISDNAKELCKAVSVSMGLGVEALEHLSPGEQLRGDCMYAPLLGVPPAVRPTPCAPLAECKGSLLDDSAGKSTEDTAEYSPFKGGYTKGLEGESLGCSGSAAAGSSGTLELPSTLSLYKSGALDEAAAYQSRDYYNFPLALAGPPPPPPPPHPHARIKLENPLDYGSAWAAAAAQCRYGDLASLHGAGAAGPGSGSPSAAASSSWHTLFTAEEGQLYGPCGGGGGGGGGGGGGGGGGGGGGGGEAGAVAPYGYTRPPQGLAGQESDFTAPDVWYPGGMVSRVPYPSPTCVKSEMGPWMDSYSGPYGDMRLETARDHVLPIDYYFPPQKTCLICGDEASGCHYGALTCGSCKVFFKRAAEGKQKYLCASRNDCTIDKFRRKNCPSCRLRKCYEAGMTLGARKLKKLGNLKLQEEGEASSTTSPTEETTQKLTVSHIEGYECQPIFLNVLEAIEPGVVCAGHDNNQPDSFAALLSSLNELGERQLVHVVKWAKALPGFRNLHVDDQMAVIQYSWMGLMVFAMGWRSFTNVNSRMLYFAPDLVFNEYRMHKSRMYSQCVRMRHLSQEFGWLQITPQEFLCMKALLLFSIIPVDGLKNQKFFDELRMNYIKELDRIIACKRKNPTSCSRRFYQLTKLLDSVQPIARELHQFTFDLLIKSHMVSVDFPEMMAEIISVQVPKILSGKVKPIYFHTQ
In words: C2C12 AR/ARE reporter assay. It counts as cell-based. Here is the method: As an indicator of agonist activity in muscle tissue, the C2C12 AR/ARE reporter assay is performed. Briefly, mouse myoblast C2C12 cells are co-transfected using Fugene™ reagent. A reporter plasmid containing a GRE/ARE (glucocorticoid response element/androgen response element) and TK promoter upstream of the luciferase reporter cDNA, is transfected with a plasmid constitutively expressing human androgen receptor (AR) using viral CMV promoter. Cells are transfected in T150 cm^2 flasks in DMEM media with 4% charcoal stripped Fetal Bovine Serum (FBS). After a 5 hour incubation, transfected cells are trypsinized, plated in 96 well dishes in DMEM media containing 4% charcoal-stripped FBS, incubated for 2 h and then exposed to various concentrations of test compounds ranging from about 0.01 nM to 10 μM. After 48 h of incubations with compounds, cells are lysed and luciferase activity is determined by standard techniques. Data is fit to a 4 parameter-fit logistics to determine EC50 values. The % efficacy is determined versus maximum stimulation obtained with 10 nM methyltrienolone.
Background: A reporter such as luciferase makes a cellular process visible.

The target of test [2] is T2, human AR (androgen receptor) (Homo sapiens, UniProt P10275).
T2 construct: expressed in transfected cells; host or cells: HEK293 cells (lysate, '293-AR lysate')
T2 sequence (P10275 1-920): T1 sequence (P10275 1-920)
The test can be described thus: Steroid hormone nuclear receptor binding assay (AR binding). Here is the method:
Cell lysates from human embryonic kidney HEK293 cells overexpressing human MR (mineralocorticoid receptor), GR (glucocorticoid receptor), AR (androgen receptor), or PR (progesterone receptor) are used for receptor-ligand competition binding assays to determine Ki values. Typical procedures are provided below
Briefly, steroid receptor competition binding assays are run in a buffer containing 20 mM HEPES buffer (pH=7.6), 0.2 mM EDTA, 75 mM NaCl, 1.5 mM MgCl2, 20% glycerol, 20 mM sodium molybdate, 0.2 mM DTT (dithiothreitol), 20 μg/mL aprotinin and 20 μg/mL leupeptin (assay buffer). […] Assays are typically run in 96-well format. Competing test compounds are added at various concentrations ranging from about 0.01 nM to 10 μM. Non-specific binding is determined in the presence of 500 nM aldosterone for MR binding, 500 nM dexamethasone for GR binding, or 500 nM methyltrienolone for AR and PR binding. […] Plates are mixed for 8 minutes on an orbital shaker at 4° C. The plates are then centrifuged at 3,000 rpm at 4° C. for 10 minutes. An aliquot of 120 μL of the binding reaction mixture is then transferred to another 96-well plate and 175 μL of Wallac Optiphase Hisafe 3™ scintillation fluid is added to each well. Plates are sealed and shaken vigorously on an orbital shaker. After an incubation of 2 hours, plates are read in a Wallac Microbeta counter.
The Kd for [^3H]-aldosterone for MR binding, [^3H]-dexamethasone for GR binding, [^3H]-methyltrienolone for AR binding, or [^3H]-methyltrienolone for PR binding, is determined by saturation binding. The IC50 values for compounds are converted to Ki using the Cheng-Prusoff equation.

Test [3] deals with castrated (GDX) male Sprague Dawley rats. In words: Model of Efficacy and Selectivity (castrated rats, tissue wet weights). It counts as in vivo, rat. To be noted: eight week treatment; for mean LA wet weight / mean bulbocavernous wet weight / mean prostate wet weight: oral daily. As to the method:
Male Sprague Dawley rats (24 weeks old) are castrated (gonadectomized or “GDX”) according to approved procedures and allowed to waste for eight weeks. Age-matched sham-operated […] are also prepared Animals are housed in a temperature-controlled room (24° C.) with a reversed 12 hour light/dark cycle and water and food are available ad libitum.
Animals are randomized based on body weight prior to ascribing a test slot. Compounds of the present invention are administered daily by oral gavage to the castrated thirty two week old rats (body weight about 450-500 g) using a conventional vehicle such as 1% sodium carboxymethylcellulose (CMC)+0.25% Tween 80+0.05% AntiFoam® in sterile H2O. Sham operated rats treated with vehicle alone are used as a treatment positive controls whereas castrated rats treated only with vehicle are used as treatment negative control.
Test animals are dosed daily over a two or eight week timeframe with, for example, 0.3, 1, 2, 3, or 6 mg/kg/day of a compound of the present invention. After the treatment period, animals are sacrificed and the wet weight of the Levator Ani (LA) muscle and the bulbocavernous muscle in each test group may determined and compared to the wet weight of the Levator Ani and the bulbocavernous muscle from the castrated, vehicle-only control group (after weighing, the bulbocavernous muscle may be flash frozen in liquid nitrogen for later use in measuring nitric oxide synthase mRNA, as described below) As an indicator of tissue selective activity, the wet weight of the prostate from test animals may be similarly compared to the wet weight of the prostate from the castrated, vehicle-only group.

Test [4] concerns penile nitric oxide synthase (pnNOS) mRNA. In words: pnNOS mRNA by real-time quantitative PCR in bulbocavernosum tissue of treated castrated rats. The format is in vivo, rat. To be noted: eight weeks. As to the method:
(§1) RNA is isolated from frozen bulbous and corpus cavernosum tissues that are obtained at necropsy from castrated Sprague Dawley rats that are prepared and dosed essentially as described above for the Model of Efficacy and Selectivity. cDNA is synthesized from 2 μg of RNA using a high capacity cDNA kit according to the manufacturer's instructions.
(§2) Real-time quantitative PCR is then performed according to the fluorescent TaqMan® methodology (Applied Biosystems). Assays-on-Demand™ (Applied Biosystems) probes are used for the rat […] nitric oxide synthase transcript (eNOS) while probes are designed for the rat penile specific isoform of neuronal nitric oxide synthase (pnNOS) using probe designer software (Applied Biosystems). The probes are designed to span a 102 bp region of the rat neuronal nitric oxide synthase gene (pnNOS) that is specific to pnNOS (positions 2865-2967). MGB™ Primer sequences are 5′CCGGAACCCTTGCGTTT 3′ (SEQ ID NO:1) (forward) and 5′[…] 3′ (SEQ ID NO:2) (reverse) and the probe sequence is 5′CCCGTAAAGGGCCT 3′ (SEQ ID NO:3) (FAM NFQ). Assays-on-Demand™ probe sets for the PPIB transcript are used as an internal control. PCR is performed on an ABI Prism 7700 Sequence Detection System at the following thermocycler conditions: 2 min. at 50° C., 10 min. at 95° C., and 40 cycles at 95° C. for 30 s, and 60° C. for 1 min. All reactions are carried out in triplicate.

The test system of test [5] is epithelial nitric oxide synthase (eNOS) mRNA. In words: eNOS mRNA by real-time quantitative PCR in corpus cavernosum tissue of treated castrated rats. The format is in vivo, rat. To be noted: 2 mg/kg/day, two weeks. As to the method:
as §1, §2

Molecules are shown by their SMILES. Read-outs that look alike come from different tables or passages of the source.

`CC(C)OC(=O)N[C@H]1Cc2c(n(C[C@@H]3N(C)CC[C@@]3(C)O)c3ccc(C#N)cc23)C1` (relative stereo) [Example 6, [(S)-7-Cyano-4-(trans-3-hydroxy-1-methyl-3-methyl-pyrrolidin-2-ylmethyl)-1,2,3,4-tetrahydro-cyclopenta[b]indol-2-yl]-carbamic acid isopropyl ester]: in test [1] (mouse myoblast C2C12 cells transfected with human AR, no unit printed for these values, read-out: EC50 in the C2C12 AR/ARE reporter assay), the EC50 is roughly 0.3 nM.

As to `CC(C)OC(=O)N[C@H]1Cc2c(n(C[C@@H]3[C@@H](O)CCN3C)c3ccc(C#N)cc23)C1` [Example 2, [(S)-7-Cyano-4-((2R,3S)-3-hydroxy-1-methyl-pyrrolidin-2-ylmethyl)-1,2,3,4-tetrahydrocyclopenta[b]indol-2-yl]-carbamic acid isopropyl ester], the Ki (as a rule, the equilibrium dissociation constant of an inhibitor or competing ligand from its target) in test [2] is roughly 11 nM. Besides, in test [1], the EC50 was roughly 1 nM. The “mean LA wet weight” value in test [3] (0.3 mg/kg) is given as “about 0.137 g”; in test [3] (1.0 mg/kg), “about 0.182 g”; in test [3] (3.0 mg/kg), “about 0.205 g”; in test [3] (6.0 mg/kg), “about 0.264 g”. Also, the “mean bulbocavernous wet weight” value in test [3] (0.3 mg/kg) is “about 0.476 g”; in test [3] (1.0 mg/kg), “about 0.582 g”; in test [3] (3.0 mg/kg), “about 0.698 g”; in test [3] (6.0 mg/kg) it was “about 0.955 g”. Further, the “mean prostate wet weight” value in test [3] (0.3 mg/kg) is given as “about 72.4 mg”; in test [3] (1.0 mg/kg), “about 102.8 mg”; in test [3] (3.0 mg/kg), “about 147.4 mg”; in test [3] (6.0 mg/kg), “about 271.8 mg”. The “Levator ani weight in comparison to the castrated control group” value in test [3] (0.3-6.0 mg/kg) is given as “dose dependent increase”. Also, the “bulbocavernous weight in comparison to the castrated control group” value in test [3] (0.3-6.0 mg/kg) is given as “dose dependent increase”. Also, the pnNOS expression result was “about 97 % of control” in test [4] (0.3 mg/kg), “about 93 % of control” in test [4] (1.0 mg/kg), “about 153 % of control” in test [4] (3.0 mg/kg) and “about 248 % of control” in test [4] (6.0 mg/kg). The “penile nitric oxide synthase (pnNOS) mRNA” value in test [4] (0.3-6.0 mg/kg) is reported as “dose dependent increase”. For the same compound, the eNOS expression result in test [5] is given as “about 159 % of control”.

For the compound `CC(C)OC(=O)N[C@H]1Cc2c(n(Cc3ccccc3O)c3ccc(C#N)cc23)C1` [Example 9, [(S)-7-Cyano-4-(2-hydroxy-benzyl)-1,2,3,4-tetrahydro-cyclopenta[b]indol-2-yl]-carbamic acid isopropyl ester], in test [2], the inhibitory constant (Ki) is roughly 0.8 nM. The EC50 in test [1] is roughly 0.3 nM.

In test [2], `CC(C)OC(=O)N[C@H]1Cc2c(n(C[C@H]3NCC[C@@H]3O)c3ccc(C#N)cc23)C1` [Example 1, [(S)-7-Cyano-4-((2R,3S)-3-hydroxy-pyrrolidin-2-ylmethyl)-1,2,3,4-tetrahydrocyclopenta[b]indol-2-yl]-carbamic acid isopropyl ester] returned an inhibitory constant (Ki) of roughly 51 nM. Also, in test [1], the EC50 is roughly 20 nM.

These data come from patent publication US8486943B2, “Tetrahydrocyclopenta[b]indole androgen receptor modulators” (Eli Lilly and Company, priority 2008, dated 2013).
